Tested on: OLFML3
Test: RT-qPCR of OLFML3 in PTEN-KO SF763 cells
Assay type: cell-based, human
Settings: shC PTEN-KO SF763 cells; SC75741 5 μM; 8 hours
Description: Cell Culture. The GBM cell lines U87, U251, SF763, LN229, and CT2A, as well as 293T cells were cultured in Dulbecco's Modified Eagle's Medium (DMEM; Gibco, #11995-065). The mouse glioma cell line GL261 cells and SIM-A9 microglia were cultured in Dulbecco's Modified Eagle Medium-Ham's F12 medium (Gibco, #10565-018). HMC3 microglia were cultured in Eagle's Minimum Essential Medium (ATCC, #30-2003). THP-1 macrophages were cultured in RPMI 1640 medium (Gibco, #11875093). All cell lines were cultured in the indicated medium containing 10% fetal bovine serum (FBS; Fisher Scientific, #16140071) and 1:100 antibiotic-antimycotic (Gibco, #15140-122), and were purchased from the American Type Culture Collection (ATCC). Human GSCs (GSC23 and GSC7-10) and mouse GBM tumor-derived 005 GSCs and QPP7 GSCs were cultured in neural stem cell (NSC) proliferation media (Millipore, #SCM005) containing 20 ng/mL epidermal growth factor (EGF; PeproTech, #AF-100-15) and basic fibroblast growth factor (bFGF; PeproTech, #100-18B). Human GSCs were gifted by Dr. Frederick F. Lang from the Brain Tumor Center (The University of Texas MD Anderson Cancer Center). […]
Quantitative real-time PCR (RT-qPCR). […] RNA was quantified by NanoDrop spectrophotometers and then the All-In-One 5× RT MasterMix (Applied Biological Materials, #G592) was used to reverse-transcribe RNA into cDNA in T100 Thermal Cycler (Bio-Rad). […]

O=C(c1ccccc1)c1ccc2nc(NC(=O)c3csc(C4CCN(c5ncnc6ccsc56)CC4)n3)[nH]c2c1 [SC75741]
mRNA expression of OLFML3: upregulated
